Results from PubChem BioAssay AID2060892 (Molecular Pharmacology Branch, DTP, NCI, 2025).
pIC50: −log10 of the molar value.

Test system: HOP-62 complex spheroids with HUVEC/MSC, viability
Test: Anticancer human tumor HOP-62 cell line growth inhibition [RAS];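 also: spheroids exposed to agents for seven days before readout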;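 as to viability, T/C: 100% = DMSO vehicle control viability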
Settings: for pIC50: curve of first compound; for viability, T/C: stronger effect = lower value
In short: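 Multi-cell-type spheroids: tumor cells plus HUVEC endothelial cells and mesenchymal stem cells. RAS-pathway inhibitors were combined with targeted agents, each dosed in half-log steps down from clinical Cmax, or from 10 microM when Cmax was unknown.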

[1] = second compound 0.000949 µM, first compound 0.0316 µM
[2] = second compound 0.000949 µM, first compound 0.1 µM
[3] = second compound 0.000949 µM, first compound 0.316 µM
[4] = second compound 0.000949 µM, first compound 1 µM
[5] = second compound 0.000949 µM, first compound 3.16 µM
[6] = second compound 0.000949 µM, first compound 10 µM
[7] = second compound 0.003 µM, first compound 0.0316 µM
[8] = second compound 0.003 µM, first compound 0.1 µM
[9] = second compound 0.003 µM, first compound 0.316 µM
[10] = second compound 0.003 µM, first compound 1 µM
[11] = second compound 0.003 µM, first compound 3.16 µM
[12] = second compound 0.003 µM, first compound 10 µM
[13] = second compound 0.00949 µM, first compound 0.0316 µM
[14] = second compound 0.00949 µM, first compound 0.1 µM
[15] = second compound 0.00949 µM, first compound 0.316 µM
[16] = second compound 0.00949 µM, first compound 1 µM
[17] = second compound 0.00949 µM, first compound 3.16 µM
[18] = second compound 0.00949 µM, first compound 10 µM
[19] = second compound 0.03 µM, first compound 0.0316 µM
[20] = second compound 0.03 µM, first compound 0.1 µM
[21] = second compound 0.03 µM, first compound 0.316 µM
[22] = second compound 0.03 µM, first compound 1 µM
[23] = second compound 0.03 µM, first compound 3.16 µM
[24] = second compound 0.03 µM, first compound 10 µM
[25] = second compound 0.0949 µM, first compound 0.0316 µM
[26] = second compound 0.0949 µM, first compound 0.1 µM
[27] = second compound 0.0949 µM, first compound 0.316 µM
[28] = second compound 0.0949 µM, first compound 1 µM
[29] = second compound 0.0949 µM, first compound 3.16 µM
[30] = second compound 0.0949 µM, first compound 10 µM
[31] = second compound 0.3 µM, first compound 0.0316 µM
[32] = second compound 0.3 µM, first compound 0.1 µM
[33] = second compound 0.3 µM, first compound 0.316 µM
[34] = second compound 0.3 µM, first compound 1 µM
[35] = second compound 0.3 µM, first compound 3.16 µM
[36] = second compound 0.3 µM, first compound 10 µM

Compound: CC(C)NCC(C(=O)N1CCN(c2ncnc3c2C(C)CC3O)CC1)c1ccc(Cl)cc1 (centres undefined) + CCn1c(-c2cc(N3CCN(C)CC3)cnc2C(C)OC)c2c3cc(ccc31)-c1csc(n1)CC(NC(=O)C1CC1C)C(=O)N1CCCC(N1)C(=O)OCC(C)(C)C2
- pIC50 (second compound 0.000949 µM): 5.41
- pIC50 (second compound 0.003 µM): 5.64
- pIC50 (second compound 0.00949 µM): 6.23
- pIC50 (second compound 0.03 µM): > 7.50
- pIC50 (second compound 0.0949 µM): > 7.50
- pIC50 (second compound 0.3 µM): > 7.50
- viability, T/C [1]: 121%
- viability, T/C [2]: 119%
- viability, T/C [3]: 80.8%
- viability, T/C [4]: 88.9%
- viability, T/C [5]: 60%
- viability, T/C [6]: 19.1%
- viability, T/C [7]: 100%
- viability, T/C [8]: 95%
- viability, T/C [9]: 71.2%
- viability, T/C [10]: 71.3%
- viability, T/C [11]: 44.1%
- viability, T/C [12]: 17%
- viability, T/C [13]: 74.7%
- viability, T/C [14]: 56.9%
- viability, T/C [15]: 58.5%
- viability, T/C [16]: 48.6%
- viability, T/C [17]: 21.5%
- viability, T/C [18]: 12.3%
- viability, T/C [19]: 46.9%
- viability, T/C [20]: 46.3%
- viability, T/C [21]: 38.3%
- viability, T/C [22]: 31.7%
- viability, T/C [23]: 14.8%
- viability, T/C [24]: 15.3%
- viability, T/C [25]: 34.7%
- viability, T/C [26]: 40.6%
- viability, T/C [27]: 30.4%
- viability, T/C [28]: 30.9%
- viability, T/C [29]: 15%
- viability, T/C [30]: 13.9%
- viability, T/C [31]: 34.2%
- viability, T/C [32]: 38.6%
- viability, T/C [33]: 29.6%
- viability, T/C [34]: 22.4%
- viability, T/C [35]: 19.2%
- viability, T/C [36]: 14.5%

Compound: CC(Nc1ccc2c(c1)OCCn1cc(N3C(=O)OCC3C(F)F)nc1-2)C(N)=O (centres undefined) + CCn1c(-c2cc(N3CCN(C)CC3)cnc2C(C)OC)c2c3cc(ccc31)-c1csc(n1)CC(NC(=O)C1CC1C)C(=O)N1CCCC(N1)C(=O)OCC(C)(C)C2
- pIC50 (second compound 0.000949 µM): 5.86
- pIC50 (second compound 0.003 µM): 6.44
- pIC50 (second compound 0.00949 µM): > 7.50
- pIC50 (second compound 0.03 µM): > 7.50
- pIC50 (second compound 0.0949 µM): > 7.50
- pIC50 (second compound 0.3 µM): > 7.50
- viability, T/C [1]: 91.4%
- viability, T/C [2]: 69.2%
- viability, T/C [3]: 53.9%
- viability, T/C [4]: 61%
- viability, T/C [5]: 49.9%
- viability, T/C [6]: 25.9%
- viability, T/C [7]: 75.9%
- viability, T/C [8]: 52.7%
- viability, T/C [9]: 47.5%
- viability, T/C [10]: 46.2%
- viability, T/C [11]: 36.7%
- viability, T/C [12]: 15.7%
- viability, T/C [13]: 48.4%
- viability, T/C [14]: 36.8%
- viability, T/C [15]: 36.1%
- viability, T/C [16]: 27.4%
- viability, T/C [17]: 19.2%
- viability, T/C [18]: 12.6%
- viability, T/C [19]: 33.1%
- viability, T/C [20]: 23.2%
- viability, T/C [21]: 22.5%
- viability, T/C [22]: 21.5%
- viability, T/C [23]: 13.8%
- viability, T/C [24]: 14.7%
- viability, T/C [25]: 27.1%
- viability, T/C [26]: 24.8%
- viability, T/C [27]: 20.5%
- viability, T/C [28]: 21.5%
- viability, T/C [29]: 12.8%
- viability, T/C [30]: 14%
- viability, T/C [31]: 32.5%
- viability, T/C [32]: 20.1%
- viability, T/C [33]: 21.3%
- viability, T/C [34]: 17.3%
- viability, T/C [35]: 13.4%
- viability, T/C [36]: 15.7%
